Measurements: patent US9480740B2, “Synthetic glucopyranosyl lipid adjuvants” (priority 2009, dated 2016)

Tests used:
[1] = molecular target: T1, TLR4, MD-2, and CD14 (Homo sapiens, UniProt O00206+Q9Y6Y9); experiment: NF-kB reporter (secreted alkaline phosphatase, QUANTIBlue) assay in HEK 293 cells expressing TLR4, MD-2 and CD14; type: cell-based
T1 construct: host or cells: HEK 293
Description: (§1) Compound IX was tested in vitro using HEK 293 cells (InvivoGen) with expression vectors encoding 1) TLR4, MD-2, and CD14, or 2) TLR2 and TLR6 to define compound activity and dependence on TLR4, and to exclude activation of TLR2. These HEK 293 cell lines were further stably transfected with the NF-kB reporter vector pNifty-2 such that alkaline phosphatase is secreted into the growth media upon activation of the TLR signaling pathway. Transfected cell lines were plated at 5×10^4 cells per well in a 96-well plates and stimulated for 16-24 hours cultured in medium containing serial dilutions of Compound IX and other adjuvants. Secreted alkaline phosphatase activity was measured in the culture media using QUANTIBlue® assay (InvivoGen). The data was measured as enhancement of NF-kB above the PBS negative control. […] Compound IX was designed based on structural considerations of the reported atomic structure of MD2 and TLR4. […] Thus, it is expected that Compound IX and other illustrative compounds of the invention can be safely administered over a broad range of concentrations, which is highly desirable in the context of reproducibility of clinical outcomes among patients and for the safety in ranging a dose for adults and children. […]

[2] = test system: ID83 antigen (Mycobacterium tuberculosis antigenic polypeptide)-specific IFN-γ secreting splenocytes; experiment: ELISPOT of IFN-γ cytokine responses of splenocytes from mice vaccinated with ID83 antigen plus adjuvant; type: in vivo, Mice (C57BL/6)
[3] = molecular target: T2, TLR2 and TLR6 (Homo sapiens, UniProt O60603+Q9Y2C9); experiment: NF-kB reporter (secreted alkaline phosphatase, QUANTIBlue) assay in HEK 293 cells expressing TLR2 and TLR6; type: cell-based; conditions: HEK 293 cells with TLR2, TLR6 and NF-kB reporter
T2 construct: host or cells: HEK 293
Description: as §1

[4] = test system: human whole blood cells; experiment: Induction of immunostimulatory cytokines (MIP-1-α and TNF-α ELISA) in human whole blood; type: cell-based; conditions: human whole blood from two donors, 1:5 serial dilutions, 20 hour incubation
Description: In this example, human whole blood cells were stimulated with Compound IX and ELISA assays were performed to detect the induction of immunostimulatory cytokines. Serial dilutions (1:5) of Compound IX and other adjuvants were performed with phosphate buffered saline in a 96 well plate for a total of 7 dilutions. 100 μl of freshly drawn human blood from two different donors were mixed and incubated with 100 μl of adjuvant dilutions. Following a 20 hour incubation, plates were centrifuged and supernatants (˜70 μl) were collected, avoiding red blood cells, and stored at −20° C. prior performing MIP-1-α and TNF-α ELISAs using standard biochemical procedures. […] Additionally, these primary donor results mimicked the results seen in human cell lines and extend these important findings in relation to the possible dose ranges and safety profiles for this compound.

T1 sequence (O00206 24-839): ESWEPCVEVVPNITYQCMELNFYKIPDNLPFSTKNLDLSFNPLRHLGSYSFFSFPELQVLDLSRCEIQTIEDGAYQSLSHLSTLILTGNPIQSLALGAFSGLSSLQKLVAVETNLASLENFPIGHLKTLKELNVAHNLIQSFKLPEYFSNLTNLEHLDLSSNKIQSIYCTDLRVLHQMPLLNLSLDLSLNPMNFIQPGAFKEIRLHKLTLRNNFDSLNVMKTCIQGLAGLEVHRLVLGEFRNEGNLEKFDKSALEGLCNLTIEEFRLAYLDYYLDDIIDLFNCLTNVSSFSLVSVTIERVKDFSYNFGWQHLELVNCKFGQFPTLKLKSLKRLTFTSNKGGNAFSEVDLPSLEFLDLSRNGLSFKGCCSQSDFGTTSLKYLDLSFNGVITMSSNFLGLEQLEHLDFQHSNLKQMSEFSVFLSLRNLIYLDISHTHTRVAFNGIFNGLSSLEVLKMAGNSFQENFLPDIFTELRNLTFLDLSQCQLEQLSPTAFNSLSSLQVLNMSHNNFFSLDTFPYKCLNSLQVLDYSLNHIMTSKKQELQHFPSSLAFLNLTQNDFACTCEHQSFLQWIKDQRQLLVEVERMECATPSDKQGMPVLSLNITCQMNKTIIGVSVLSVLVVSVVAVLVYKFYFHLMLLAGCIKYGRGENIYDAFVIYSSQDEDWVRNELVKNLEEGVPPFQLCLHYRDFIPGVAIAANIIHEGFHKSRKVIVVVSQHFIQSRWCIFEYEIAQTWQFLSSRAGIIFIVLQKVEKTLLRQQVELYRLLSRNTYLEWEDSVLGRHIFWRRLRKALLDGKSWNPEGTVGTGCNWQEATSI
T1 sequence (Q9Y6Y9 17-160 limits assumed): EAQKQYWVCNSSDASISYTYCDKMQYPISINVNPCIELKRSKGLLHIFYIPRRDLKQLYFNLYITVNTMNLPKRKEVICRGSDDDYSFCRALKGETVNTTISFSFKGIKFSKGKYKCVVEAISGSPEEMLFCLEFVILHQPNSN
T2 sequence (O60603 21-784): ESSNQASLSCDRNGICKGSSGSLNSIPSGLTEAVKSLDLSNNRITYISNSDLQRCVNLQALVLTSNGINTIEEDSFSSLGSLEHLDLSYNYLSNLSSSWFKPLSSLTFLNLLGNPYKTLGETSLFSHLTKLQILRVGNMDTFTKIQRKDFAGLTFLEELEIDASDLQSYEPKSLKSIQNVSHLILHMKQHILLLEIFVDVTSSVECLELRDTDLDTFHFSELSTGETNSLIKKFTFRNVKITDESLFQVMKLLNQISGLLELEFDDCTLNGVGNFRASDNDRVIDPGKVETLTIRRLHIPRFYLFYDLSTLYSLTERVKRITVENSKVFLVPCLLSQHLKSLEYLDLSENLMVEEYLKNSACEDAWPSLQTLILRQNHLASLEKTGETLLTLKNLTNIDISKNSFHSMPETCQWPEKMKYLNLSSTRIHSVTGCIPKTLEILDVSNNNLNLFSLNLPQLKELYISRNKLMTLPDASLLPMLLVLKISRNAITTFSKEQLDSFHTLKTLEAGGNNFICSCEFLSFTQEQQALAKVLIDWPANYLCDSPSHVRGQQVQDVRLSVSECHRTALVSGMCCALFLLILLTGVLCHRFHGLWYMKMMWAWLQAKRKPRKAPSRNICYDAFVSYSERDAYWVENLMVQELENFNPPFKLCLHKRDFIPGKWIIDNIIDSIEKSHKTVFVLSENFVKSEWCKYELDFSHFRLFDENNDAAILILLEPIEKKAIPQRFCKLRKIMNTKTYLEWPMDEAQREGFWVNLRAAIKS
T2 sequence (Q9Y2C9 32-796): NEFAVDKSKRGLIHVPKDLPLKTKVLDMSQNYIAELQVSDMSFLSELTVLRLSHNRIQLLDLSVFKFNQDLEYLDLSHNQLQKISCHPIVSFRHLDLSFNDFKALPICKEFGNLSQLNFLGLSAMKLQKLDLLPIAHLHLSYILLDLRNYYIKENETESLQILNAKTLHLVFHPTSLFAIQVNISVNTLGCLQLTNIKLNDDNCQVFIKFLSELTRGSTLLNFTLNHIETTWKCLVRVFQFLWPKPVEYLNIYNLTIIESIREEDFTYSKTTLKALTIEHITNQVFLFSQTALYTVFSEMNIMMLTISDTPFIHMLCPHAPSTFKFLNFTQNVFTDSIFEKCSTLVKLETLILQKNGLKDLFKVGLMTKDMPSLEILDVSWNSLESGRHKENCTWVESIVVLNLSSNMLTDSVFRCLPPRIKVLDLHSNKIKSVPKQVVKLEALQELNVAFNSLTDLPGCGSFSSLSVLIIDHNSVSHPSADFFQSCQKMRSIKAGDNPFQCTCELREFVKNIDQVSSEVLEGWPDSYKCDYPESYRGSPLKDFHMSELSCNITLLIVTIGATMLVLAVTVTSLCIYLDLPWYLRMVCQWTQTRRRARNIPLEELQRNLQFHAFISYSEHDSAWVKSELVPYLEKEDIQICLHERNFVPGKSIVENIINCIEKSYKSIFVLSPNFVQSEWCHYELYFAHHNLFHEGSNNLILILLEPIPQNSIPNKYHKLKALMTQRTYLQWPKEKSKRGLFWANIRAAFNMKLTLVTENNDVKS

CCCCCCCCCCC[C@@H](O)CC(=O)N[C@@H]1C(O)OC(CO[C@@H]2OC(CO)[C@@H](OP(=O)(O)O)[C@H](OC(=O)C[C@@H](CCCCCCCCCCC)OC(=O)CCCCCCCCC)[C@@H]2NC(=O)C[C@@H](CCCCCCCCCCC)OC(=O)CCCCCCCCC)[C@@H](O)[C@@H]1OC(=O)C[C@H](O)CCCCCCCCCCC (stereo partly drawn) [Compound IX, (3R)-((2R,3S,4R,5S)-3-((R)-3-(DECANOYLOXY)TETRADECANAMIDO)-2-(((3S,4R,5S)-3,6-DIHYDROXY-5-((R)-3-HYDROXYTETRADECANAMIDO)-4-((R)-3-HYDROXYTETRADECANOYLOXY)TETRAHYDRO-2H-PYRAN-2-YL)METHOXY)-6-(HYDROXYMETHYL)-5-(PHOSPHONOOXY)TETRAHYDRO-2H-PYRAN-4-YL) 3-(DECANOYLOXY)TETRADECANOATE]
TLR4 agonist activity ([1]; HEK 293 cells with TLR4, MD-2, CD14 and NF-kB reporter): clear TLR4 agonist activity | shape of profile with increasing concentration ([1]; serial dilutions): plateaus rapidly as concentrations are increased | ID83 antigen-specific IFN-γ cytokine responses (IFN-γ secreting cells per million of splenocytes, ELISPOT) ([2]; C57BL/6 mice, 8 μg ID83 + 10 μg adjuvant in stable emulsion, three immunizations at three-week intervals, three weeks after the third immunization): induced robust ID83 antigen-specific cytokine responses | type of antigen-specific immune response induced (conclusion) ([2]; Compound IX in a stable oil formulation with ID83): induced predominantly antigen-specific immune responses of the cellular type (T cell) associated with the protective TH1 phenotype | induction of TLR2 [3]: did not appear to be associated with induction of TLR2 | immunostimulatory activity (induction of MIP-1-α and TNF-α) [4]: has immunostimulatory activity in primary human blood cells
